“Also recorded” adds a separate entry of the source.
Experiments:
[1] = tested on: RuBisCO large and small subunit; experiment: RuBisCO large and small subunit levels, immunodetection and densitometry; format: in vivo, Nicotiana benthamiana; conditions: for depletion of RuBisCO large and small subunit pools, less than in controls: uninfiltrated leaves, seven days post-treatment
Method: FIGS. 1a-1d show total soluble proteins (TSP), 1-D proteome profile and RuBisCO subunit levels in agroinfiltrated and control N. benthamiana leaves treated with the stress elicitor MeJA 24 h before infection. […] FIGS. 1c and 1d show relative amounts of RuBisCO large (RbcL; FIG. 1c) and small (RbsS; FIG. 1d) subunits in MeJA-treated leaves as determined by densitometry following immunodetection with appropriate antibodies. Protein signals on the immunoblots were quantified using the Phoretix 2-D Expression software v. 2005 (NonLinear USA, Durham N.C., U.S.A.) after scanning nitrocellulose membranes with a Microtek ScanMaker II digitalizer (Microtek Laboratory, Torrance Calif., U.S.A.). Data are expressed as relative levels compared to non-treated controls assigned an arbitrary level of 1.0. Each bar on panels (a) and (c) is the mean of three independent (leaf replicate) values±SE. Infiltrated leaves were transfected with A. tumefaciens cells 24 h post-MeJA treatment. All plant samples were harvested seven days post-MeJA treatment (i.e. six days post-agroinfiltration for the transfected plants).
Forty-two day-old N. benthamiana plants grown in greenhouse were used for the experiments. Each plant was sprayed evenly with 50 ml of 0.5 mM, 1 mM or 2 mM MeJA in water containing 0.1% (v/v) Triton X-100 (Sigma-Aldrich, Mississauga ON, Canada), or with 50 ml of 1 mM arachidonic acid (Girard et al., 2007) in the same solvent, and transferred for seven days in a Conviron growth chamber (Conviron, Winnipeg MB, Canada). Plants sprayed with 50 ml of 0.1% (v/v) Triton X-100 in water were used in parallel as negative controls to avoid confounding effects due to experimental conditions. Two or three 1-cm^2 leaf discs were harvested from the third main stem leaf (see Robert et al., 2013) after seven days, as source material for protein and RNA extraction. The leaf samples were frozen immediately in liquid nitrogen and stored at −80° C. until protein or RNA extraction. Three to five biological (plant) replicates were used for each treatment, to allow for statistical treatment of the data. […]

A. tumefaciens VirB1 = experiment: Real-time RT PCR of VirB1 transcripts in agroinfiltrated leaves; format: in vivo, Agrobacterium tumefaciens; conditions: 1 mM, seven days post-treatment, Student's t-test P<0.05
Method: mRNA transcripts for C5-1 and A. tumefaciens virulence proteins VirB1 and VirE1 were assayed by real-time RT PCR using an ABI PRISM 7500 Fast real-time PCR apparatus, system version 2.0.1 (Applied Biosystems, Carlsbad Calif., U.S.A.). Total RNA was extracted from two 1-cm^2 leaf discs collected on the third main stem leaf (Robert et al., 2013) using the Qiagen RNeasy plant mini kit (Qiagen), following the supplier's instructions. RNA samples were treated with DNase I (Roche Diagnostics) to remove contaminant DNA and assessed for quality and quantity using a Nanodrop® ND-1000 spectrophotometer (NanoDrop Technologies, Wilmington Del., USA). First-strand cDNA was synthesized from 500 ng of total RNA using 4 units of Omniscript reverse transcriptase (Qiagen) and 1 μM of oligo-dT (15) nucleotides (Roche). PCR reactions contained 10 μl of Fast SYBR Green PCR Master Mix (Applied Biosystems), 2 μl of cDNA template, and 2.5 μl each of appropriate forward and reverse primers at 625 nM final concentration (Table 1). A no-template mixture control was included in each 96-well plate. Amplification rounds consisted of a 20-s denaturation step at 95° C., followed by 40 two-step cycles of 3 s at 95° C. and 30 s at 60° C. […]

[2] = tested on: C5-1 light and heavy chain mRNA; experiment: Real-time RT PCR of C5-1 light and heavy chain transcripts; format: in vivo, Nicotiana benthamiana; conditions: 1 mM spray, 24 h before infiltration

CC/C=C\C[C@H]1C(=O)CC[C@@H]1CC(=O)OC [MeJA, methyl jasmonate]
depletion of RuBisCO large and small subunit pools, less than in controls ([1]; 0.5 mM dose): ~40% | depletion of RuBisCO large and small subunit pools, less than in controls ([1]; 2 mM dose): more than 90% | RuBisCO large and small subunits, share of original content relative to untreated plants ([1]; agroinfiltrated leaves (empty vector, 24 h post-treatment), 1 or 2 mM, six days post-infection): less than 50% | VirB1 mRNA transcripts versus control leaves (A. tumefaciens VirB1): negatively altered; also recorded: significantly lower value | mRNA transcript numbers for C5-1 light and heavy chains compared with control leaf extracts [2]: about twofold

From US10907168B2, “Jasmonic acid pathway activator” (MEDICAGO INC., priority 2015, dated 2021)
